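How tested: cells in 96-well plates exposed to compound for 48 hours at five concentrations. At the GI50, growth is halved. TGI is the concentration that stops growth completely.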
Legend:
Assay in all cases: NCI tumour cell line growth inhibition, 48 h
RXF 393 renal = tested on: RXF 393 renal
NCI/ADR-RES ovarian = tested on: NCI/ADR-RES ovarian
SNB-75 CNS = tested on: SNB-75 CNS
M14 melanoma = tested on: M14 melanoma
OVCAR-3 ovarian = tested on: OVCAR-3 ovarian
HOP-92 NSCLC = tested on: HOP-92 NSCLC
A498 renal = tested on: A498 renal
MDA-MB-435 = tested on: MDA-MB-435
SN12C renal = tested on: SN12C renal
NCI-H460 lung = tested on: NCI-H460 lung
DU-145 prostate = tested on: DU-145 prostate
UO-31 renal = tested on: UO-31 renal
SK-MEL-28 melanoma = tested on: SK-MEL-28 melanoma
TK-10 renal = tested on: TK-10 renal
EKVX NSCLC = tested on: EKVX NSCLC
HL-60(TB) leukemia = tested on: HL-60(TB) leukemia
NCI-H226 lung = tested on: NCI-H226 lung
HCT-116 colon = tested on: HCT-116 colon
KM12 colon = tested on: KM12 colon
SK-MEL-2 melanoma = tested on: SK-MEL-2 melanoma
SF-539 CNS = tested on: SF-539 CNS
OVCAR-5 ovarian = tested on: OVCAR-5 ovarian
UACC-62 melanoma = tested on: UACC-62 melanoma
RPMI-8226 leukemia = tested on: RPMI-8226 leukemia
MDA-MB-231 breast = tested on: MDA-MB-231 breast
SK-MEL-5 melanoma = tested on: SK-MEL-5 melanoma
ACHN renal = tested on: ACHN renal
SW-620 colon = tested on: SW-620 colon
SK-OV-3 ovarian = tested on: SK-OV-3 ovarian
CCRF-CEM leukemia = tested on: CCRF-CEM leukemia
SF-295 CNS = tested on: SF-295 CNS
BT-549 breast = tested on: BT-549 breast
HCT-15 colon = tested on: HCT-15 colon
UACC-257 melanoma = tested on: UACC-257 melanoma
HCC-2998 colon = tested on: HCC-2998 colon
NCI-H23 lung = tested on: NCI-H23 lung
CAKI-1 renal = tested on: CAKI-1 renal

## Cc1[nH]c(C(=O)Nc2ccccc2OCc2cccc(C(=O)NC3CCNC3)c2)c(Cl)c1Cl (centres undefined)
RXF 393 renal
  GI50: 2.07 µM
  TGI: 4.9 µM
NCI/ADR-RES ovarian
  GI50: > 100 µM
  TGI: > 100 µM
SNB-75 CNS
  GI50: 1.56 µM
  TGI: 4.95 µM
M14 melanoma
  GI50: 1.75 µM
  TGI: 3.4 µM
OVCAR-3 ovarian
  GI50: 1.89 µM
  TGI: 3.44 µM
HOP-92 NSCLC
  GI50: 3.57 µM
  TGI: 20.5 µM
A498 renal
  GI50: 12.6 µM
  TGI: 26.7 µM
MDA-MB-435
  GI50: 1.79 µM
  TGI: 3.33 µM
SN12C renal
  GI50: 11 µM
  TGI: 27.7 µM
NCI-H460 lung
  GI50: 1.9 µM
  TGI: 3.58 µM
DU-145 prostate
  GI50: 1.88 µM
  TGI: 3.37 µM
UO-31 renal
  GI50: 15.4 µM
  TGI: 51.1 µM
SK-MEL-28 melanoma
  GI50: 1.86 µM
  TGI: 3.43 µM
TK-10 renal
  GI50: 2.86 µM
  TGI: 7.19 µM
EKVX NSCLC
  GI50: 1.95 µM
  TGI: 4.64 µM
HL-60(TB) leukemia
  GI50: 2.21 µM
  TGI: 5.11 µM
NCI-H226 lung
  GI50: 15.3 µM
  TGI: 47.3 µM
HCT-116 colon
  GI50: 1.85 µM
  TGI: 3.67 µM
KM12 colon
  GI50: 1.94 µM
  TGI: 3.69 µM
SK-MEL-2 melanoma
  GI50: 19 µM
  TGI: 57.1 µM
SF-539 CNS
  GI50: 1.74 µM
  TGI: 3.26 µM
OVCAR-5 ovarian
  GI50: 1.76 µM
  TGI: 3.24 µM
UACC-62 melanoma
  GI50: 1.67 µM
  TGI: 3.32 µM
RPMI-8226 leukemia
  GI50: 2.31 µM
  TGI: 5.07 µM
MDA-MB-231 breast
  GI50: 1.88 µM
  TGI: 3.59 µM
SK-MEL-5 melanoma
  GI50: 5.25 µM
  TGI: 19.2 µM
ACHN renal
  GI50: 3.17 µM
  TGI: 11.5 µM
SW-620 colon
  GI50: 1.86 µM
  TGI: 3.54 µM
SK-OV-3 ovarian
  GI50: 23.6 µM
  TGI: 47.3 µM
CCRF-CEM leukemia
  GI50: 1.91 µM
  TGI: 4.46 µM
SF-295 CNS
  GI50: 4.52 µM
  TGI: 38.9 µM
BT-549 breast
  GI50: 5.15 µM
  TGI: 25.1 µM
HCT-15 colon
  GI50: 4.87 µM
  TGI: 22.7 µM
UACC-257 melanoma
  GI50: 5.75 µM
  TGI: 31.1 µM
HCC-2998 colon
  GI50: 1.91 µM
  TGI: 3.55 µM
NCI-H23 lung
  GI50: 1.91 µM
  TGI: 3.89 µM
CAKI-1 renal
  GI50: 2.05 µM
  TGI: 5.1 µM

Reference: PubChem BioAssay (NCI)
